# In ChEMBL document CHEMBL1201862, “PubChem BioAssay data set” (2004):
# Several values for one entry are separate records, joined by “and”; a condition that tells them apart may be missing. Equal values may be shown once.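 All cell lines were grown in 96-well plates and treated with compound for 48 hours. At the GI50, growth is halved.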 Activity calls are given as the source filed them. Rule as the data show it: active = GI50 up to about 1.1 µM and inactive = higher.
# What was measured:
# Experiment in all cases: NCI tumour cell line growth inhibition, 48 h
# DLD-1 = system: DLD-1
# HCC 2998 = system: HCC 2998
# HCT-116 = system: HCT-116
# HCT-15 = system: HCT-15
# IGROV-1 = system: IGROV-1
# KM12 = system: KM12
# LOX IMVI = system: LOX IMVI
# MOLT-4 = system: MOLT-4
# NCI-H460 = system: NCI-H460
# OVCAR-3 = system: OVCAR-3
# RXF 393 = system: RXF 393
# SF-295 = system: SF-295
# SK-OV-3 = system: SK-OV-3
# SNB-19 = system: SNB-19
# SNB-78 = system: SNB-78
# SW-620 = system: SW-620
# Hs-578T = system: Hs-578T
# MCF7 = system: MCF7
# MDA-N = system: MDA-N
# NCI/ADR-RES = system: NCI/ADR-RES
Structure (SMILES),GI50 (DLD-1),GI50 (HCC 2998),GI50 (HCT-116),GI50 (HCT-15) [µM],GI50 (IGROV-1),GI50 (KM12),GI50 (LOX IMVI),GI50 (MOLT-4),GI50 (NCI-H460),GI50 (OVCAR-3),GI50 (RXF 393),GI50 (SF-295),GI50 (SK-OV-3),GI50 (SNB-19),GI50 (SNB-78),GI50 (SW-620),GI50 (Hs-578T),GI50 (MCF7),GI50 (MDA-N),GI50 (NCI/ADR-RES)
COc1cc(Br)c(/C=N\c2cccc3ccc(OS(=O)(=O)c4cccc([N+](=O)[O-])c4)cc23)cc1OC,35.5 µM (inactive),> 100 µM (inactive),30.5 µM (inactive),24.5,58.2 µM (inactive),30.7 µM (inactive),29.8 µM (inactive),8.18 µM (inactive),54.8 µM (inactive),32.7 µM (inactive),16.3 µM (inactive),20.4 µM (inactive),> 100 µM (inactive),60.1 µM (inactive),12 µM (inactive),48.1 µM (inactive),,,,
CC(N)C(=O)OCN1C(=O)C2C3C=CC(C2C1=O)C1C2C(=O)N(COC(=O)C(C)N)C(=O)C2C31 (centres undefined),24.5 µM (inactive),43.1 µM (inactive),24.2 µM (inactive),19.9,33.8 µM (inactive),20.3 µM (inactive),18.5 µM (inactive),21.5 µM (inactive),17.6 µM (inactive),33.6 µM (inactive),22.2 µM (inactive),> 100 µM (inactive),53.1 µM (inactive),52.2 µM (inactive),57 µM (inactive),24.4 µM (inactive),,,,
COc1ccc2cc1Oc1ccc(cc1)C[C@H]1c3cc(c(OC)cc3CCN1C)Oc1c(OC)c(OC)cc3c1[C@H](C2)N(C)CC3 [FANCHININ],9.29 µM (inactive),1.71 µM (inactive),4.5 µM (inactive) and 50.5 µM (inactive),7.78,9.2 µM (inactive) and 49.2 µM (inactive),,,,6.71 µM (inactive),7.46 µM (inactive),5.08 µM (inactive),8.93 µM (inactive) and 36.2 µM (inactive),5.9 µM (inactive) and 45.8 µM (inactive),17.4 µM (inactive) and 6.61 µM (inactive),9.44 µM (inactive),,8.63 µM (inactive) and 30.1 µM (inactive),82 µM (inactive) and 6.43 µM (inactive),,
CCN(CC)CCNc1ccc2nnn3c4ccc(O)cc4c(=O)c1c23,2.09 µM (inactive),1.52 µM (inactive),0.935 µM (active),1.83,4.01 µM (inactive),1.01 µM (active),1.21 µM (inactive),0.0407 µM (active),0.0314 µM (active),8.02 µM (inactive),0.603 µM (active),2.35 µM (inactive),8.22 µM (inactive),5.52 µM (inactive),5.89 µM (inactive),0.583 µM (active),10.7 µM (inactive),2700 nM (inactive),4.09 µM (inactive),1.47 µM (inactive)
Cn1c(=O)nc2n(-c3ccc(Cl)cc3)c3cc(Cl)ccc3nc-2c1=O,1.79 µM (inactive),4.49 µM (inactive),3.92 µM (inactive),1.82,1.6 µM (inactive),5.52 µM (inactive),2.03 µM (inactive),3.61 µM (inactive),10 µM (inactive),1.95 µM (inactive),4.45 µM (inactive),10.9 µM (inactive),18.3 µM (inactive),14.3 µM (inactive),> 37.9 µM (inactive),2.12 µM (inactive),2.48 µM (inactive),577 nM (active),1.48 µM (inactive),8.51 µM (inactive)
CCOC(OCC)C(CC)[Se]c1ccccc1 (centres undefined),> 100 µM (inactive),35.2 µM (inactive),31.8 µM (inactive),15.5,> 100 µM (inactive),> 100 µM (inactive),5.82 µM (inactive),37.2 µM (inactive),45.7 µM (inactive),> 100 µM (inactive),55.2 µM (inactive),> 100 µM (inactive),> 100 µM (inactive),> 100 µM (inactive),64.3 µM (inactive),,,,,
OCCCCCCOc1ccc(-c2cc(-c3ccccn3)nc(-c3ccccn3)c2)cc1,0.169 µM (active),0.187 µM (active),0.132 µM (active),0.109,0.205 µM (active),0.388 µM (active),0.117 µM (active),0.0274 µM (active),0.104 µM (active),0.22 µM (active),0.239 µM (active),0.194 µM (active),0.211 µM (active),0.158 µM (active),0.524 µM (active),0.367 µM (active),0.419 µM (active),32.1 nM (active),0.526 µM (active),
COc1ccc2oc3cccc(NCCN(C)C)c3c(=O)c2c1,13.1 µM (inactive),8.65 µM (inactive),7.01 µM (inactive),13.7,16.6 µM (inactive),13.1 µM (inactive),10.6 µM (inactive),4.01 µM (inactive),8.83 µM (inactive),14.7 µM (inactive),13.2 µM (inactive),16.1 µM (inactive),15.2 µM (inactive),14.3 µM (inactive),17.7 µM (inactive),5.08 µM (inactive),,,,
COC1C(N)C(OC2C(Oc3cccc4c(O)c5c(=O)oc6ccc(C)c7c(=O)oc(c34)c5c67)OC(C)C(O)C2(C)O)OC(C)C1O (centres undefined),0.0206 µM (active),0.11 µM (active),< 0.01 µM (active),0.0925,< 0.0197 µM (active),0.0313 µM (active),< 0.0125 µM (active),< 0.0243 µM (active),< 0.0122 µM (active),0.108 µM (active),< 0.0184 µM (active),0.0312 µM (active),0.114 µM (active),0.0186 µM (active),0.0394 µM (active),0.0102 µM (active),< 0.01 µM (active),< 10 nM (active),0.0743 µM (active),0.427 µM (active)
CCc1nc(N)nc(N)c1-c1ccc(Cl)c(N=[N+]=[N-])c1,5.47 µM (inactive),8.22 µM (inactive),1.19 µM (inactive),,,8.63 µM (inactive),3.26 µM (inactive),,,13.4 µM (inactive),,2.84 µM (inactive),30.2 µM (inactive),,18.2 µM (inactive),2.42 µM (inactive),27.4 µM (inactive),7240 nM (inactive),,6.31 µM (inactive)
COC(=O)C(=Cc1cc(OC)ccc1OC)C(=O)OC,29 µM (inactive),19.1 µM (inactive),,25.2,25.5 µM (inactive),20.6 µM (inactive),18.2 µM (inactive),27.4 µM (inactive),30.8 µM (inactive),21.2 µM (inactive),16 µM (inactive),28.2 µM (inactive),31.5 µM (inactive),44 µM (inactive),34.1 µM (inactive),23.7 µM (inactive),,,,
